Test results taken from ChEMBL document CHEMBL1133406, “Potent antagonists of gonadotropin releasing hormone receptors derived from quinolone-6-carboxamides” (Bioorg Med Chem Lett, 2000).
pIC50: −log10 of the molar value.

How the values were obtained:
[1] = molecular target: T1, Gonadotropin-releasing hormone receptor (Homo sapiens, UniProt P30968); test: In vitro inhibitory activity against […] CHO cells stably expressing human gonadotropin-releasing hormone receptor; assay type: cell-based
T1 sequence (P30968 whole entry): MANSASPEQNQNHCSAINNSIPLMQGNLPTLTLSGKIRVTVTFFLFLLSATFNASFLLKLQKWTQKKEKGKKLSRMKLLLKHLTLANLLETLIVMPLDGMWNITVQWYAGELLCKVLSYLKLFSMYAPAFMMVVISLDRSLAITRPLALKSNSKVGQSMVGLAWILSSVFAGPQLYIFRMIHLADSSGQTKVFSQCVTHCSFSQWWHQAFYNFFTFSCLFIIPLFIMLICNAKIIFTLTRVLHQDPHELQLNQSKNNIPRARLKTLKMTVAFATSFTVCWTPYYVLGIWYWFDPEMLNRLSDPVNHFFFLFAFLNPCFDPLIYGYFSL

[2] = molecular target: T2, Gonadotropin-releasing hormone receptor (Rattus norvegicus, UniProt P30969); test: In vitro inhibition of GnRH stimulated release of luteinizing hormone from the rat primary pituitary cells.; assay type: functional, cell-based, Pituitary gland cell
T2 sequence (P30969 whole entry): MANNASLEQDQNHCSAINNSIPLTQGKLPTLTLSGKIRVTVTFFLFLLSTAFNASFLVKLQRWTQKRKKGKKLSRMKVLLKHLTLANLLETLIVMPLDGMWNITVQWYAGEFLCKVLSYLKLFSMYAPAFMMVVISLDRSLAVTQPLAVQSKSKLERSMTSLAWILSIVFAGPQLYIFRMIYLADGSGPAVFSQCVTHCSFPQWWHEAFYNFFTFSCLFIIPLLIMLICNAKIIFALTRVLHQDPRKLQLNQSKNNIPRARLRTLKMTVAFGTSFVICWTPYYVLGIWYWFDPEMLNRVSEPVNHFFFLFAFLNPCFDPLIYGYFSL

[3] = molecular target: T1, Gonadotropin-releasing hormone receptor; test: In vitro inhibition of GnRH-stimulated phosphatidyl inositol hydrolysis in CHO cells stably expressing gonadotropin-releasing hormone receptor.; assay type: functional, cell-based

| Compound | pIC50 [1] | pIC50 [2] | pIC50 [3] |
| --- | --- | --- | --- |
| Cc1cc(C)cc(-c2c(O)nc3cc(Cl)c(C(=O)Nc4nc[nH]n4)cc3c2OCCC2CCCCN2)c1 (stereo unspecified) | 6.49 | < 5.89 | 6.11 |
| CCn1nccc1NC(=O)c1cc2c(OCCC3CCCCN3)c(-c3cc(C)cc(C)c3)c(O)nc2cc1Cl (stereo unspecified) | 6.07 | – | 6.01 |
| Cc1cc(C)cc(-c2c(O)nc3cc(Cl)c(C(=O)Nc4ccc(N(C)C)cc4)cc3c2OCCC2CCCCN2)c1 (stereo unspecified) | 7.96 | – | 6.44 |
| Cc1cc(C)cc(-c2c(O)nc3cc(Cl)c(C(=O)Nc4cnccn4)cc3c2OCCC2CCCCN2)c1 (stereo unspecified) | 8.15 | 5.66 | 7.80 |
| Cc1cc(C)cc(-c2c(O)nc3cc(Cl)c(C(=O)Nc4ccnc(C5CC5)n4)cc3c2OCCC2CCCCN2)c1 (stereo unspecified) | 7.82 | – | 6.60 |
| Cc1cc(C)cc(-c2c(O)nc3cc(Cl)c(C(=O)Nc4cc(C)nc(C)n4)cc3c2OCCC2CCCCN2)c1 (stereo unspecified) | 7.40 | – | 6.31 |
| Cc1cc(C)cc(-c2c(O)nc3cc(Cl)c(C(=O)NCc4ccc5c(c4)OCO5)cc3c2OCCC2CCCCN2)c1 (stereo unspecified) | 6.96 | < 5.89 | 6.23 |
| CCC(C)N(C(=O)c1cc2c(OCCC3CCCCN3)c(-c3cc(C)cc(C)c3)c(O)nc2cc1Cl)C(C)CC (stereo unspecified) | – | < 5.89 | – |
| Cc1cc(C)cc(-c2c(O)nc3cc(Cl)c(C(=O)Nc4nncs4)cc3c2OCCC2CCCCN2)c1 (stereo unspecified) | 7.49 | – | 7.66 |
| Cc1cc(C)cc(-c2c(O)nc3cc(Cl)c(C(=O)Nc4ncccn4)cc3c2OCCC2CCCCN2)c1 (stereo unspecified) | 6.54 | < 5.89 | < 5.49 |
| Cc1cc(C)cc(-c2c(O)nc3cc(Cl)c(C(=O)Nc4cc(C)no4)cc3c2OCCC2CCCCN2)c1 (stereo unspecified) | 7.64 | < 5.89 | – |
| Cc1cc(C)cc(-c2c(O)nc3cc(Cl)c(C(=O)Nc4cccnc4)cc3c2OCCC2CCCCN2)c1 (stereo unspecified) | 7.49 | < 5.89 | 6.89 |
| COc1nccc(NC(=O)c2cc3c(OCCC4CCCCN4)c(-c4cc(C)cc(C)c4)c(O)nc3cc2Cl)n1 (stereo unspecified) | 8.05 | – | 6.88 |
| CCN(CC)C(=O)c1cc2c(OCCC3CCCCN3)c(-c3cc(C)cc(C)c3)c(O)nc2cc1Cl (stereo unspecified) | – | < 5.89 | – |
| Cc1cc(C)cc(-c2c(O)nc3cc(Cl)c(C(=O)Nc4nnc(C)s4)cc3c2OCCC2CCCCN2)c1 (stereo unspecified) | 7.55 | < 5.89 | – |

Continued by rising pIC50 [1], values first:

| pIC50 [1] | pIC50 [2] | pIC50 [3] | Compound |
| --- | --- | --- | --- |
| 8.42 | 5.96 | 7.97 | Cc1cc(C)cc(-c2c(O)nc3cc(Cl)c(C(=O)Nc4ccncc4)cc3c2OCCC2CCCCN2)c1 (stereo unspecified) |
| 8.44 | 5.90 | 7.72 | Cc1cc(C)cc(-c2c(O)nc3cc(Cl)c(C(=O)Nc4ccccn4)cc3c2OCCC2CCCCN2)c1 (stereo unspecified) |
| 8.49 | 6.62 | 8.08 | Cc1cc(C)cc(-c2c(O)nc3cc(Cl)c(C(=O)Nc4ccncn4)cc3c2OCCC2CCCCN2)c1 (stereo unspecified) |
| 8.54 | 6.28 | 7.67 | Cc1cc(C)cc(-c2c(O)nc3cc(Cl)c(C(=O)Nc4cc(C)ns4)cc3c2OCCC2CCCCN2)c1 (stereo unspecified) |
| 8.55 | 6.78 | 7.36 | Cc1cc(C)cc(-c2c(O)nc3cc(Cl)c(C(=O)Nc4cc(C)ncn4)cc3c2OCCC2CCCCN2)c1 (stereo unspecified) |
| 8.64 | 6.29 | 7.11 | Cc1cc(C)cc(-c2c(O)nc3cc(Cl)c(C(=O)Nc4cc(C)on4)cc3c2OCCC2CCCCN2)c1 (stereo unspecified) |
| 8.70 | 6.53 | 8.19 | Cc1cc(C)cc(-c2c(O)nc3cc(Cl)c(C(=O)Nc4cnsn4)cc3c2OCCC2CCCCN2)c1 (stereo unspecified) |
| 8.74 | 7.06 | 7.48 | Cc1cc(C)cc(-c2c(O)nc3cc(Cl)c(C(=O)Nc4ccnc(C)n4)cc3c2OCCC2CCCCN2)c1 (stereo unspecified) |
| 8.85 | 7.10 | 7.84 | Cc1cc(C)cc(-c2c(O)nc3cc(Cl)c(C(=O)Nc4cc(Cl)ncn4)cc3c2OCCC2CCCCN2)c1 (stereo unspecified) |
| 9.05 | 7.02 | 8.30 | Cc1cc(C)cc(-c2c(O)nc3cc(Cl)c(C(=O)Nc4ccncn4)cc3c2OCC[C@@H]2CCCCN2)c1 |
| 9.10 | 7.62 | 8.23 | Cc1cc(C)cc(-c2c(O)nc3cc(Cl)c(C(=O)Nc4cnsn4)cc3c2OCC[C@@H]2CCCCN2)c1 |
